# Data: PMC7827406, “Structure–Activity Relationship (SAR) Study of Spautin-1 to Entail the Discovery of Novel NEK4 Inhibitors” (International Journal of Molecular Sciences, 2021)
# Where two headings read alike, the source gives them in different places.
# Legend:
# Assay in all cases: biochemical
# Set-up in all cases: Eurofins KinaseProfiler full panel at Km ATP, residual kinase activity (%) relative to DMSO
# DYRK1B(h) = DYRK1B(h) (Homo sapiens, UniProt Q9Y463)
# Outline: (§1)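 Compounds screened at 10 µM in radiometric kinase activity assays at Km ATP, reported as remaining kinase activity (%). A KINOMEscan competition-binding screen at 10 µM measured DNA-tagged kinase retained on immobilized active-site ligand by qPCR.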
# PKA(h) = target: T1, PKA(h) (Homo sapiens, UniProt P17612)
# T1 construct: gene PRKACA
# Outline: as §1
# SLK(h) = SLK(h) (Homo sapiens, UniProt Q9H2G2)
# Outline: as §1
# [1] = target: T2, PI3 Kinase (p110a(E542K)/p85a)(h) (Homo sapiens, UniProt P42336, E542K)
# T2 construct: gene PIK3CA
# Outline: as §1
# PIP5K1g(h) = target: T3, PIP5K1g(h) (Homo sapiens, UniProt O60331)
# T3 construct: gene PIP5K1C
# Outline: as §1
# JNK2α2(h) = target: T4, JNK2α2(h) (Homo sapiens, UniProt P45984)
# T4 construct: gene MAPK9; isoform alpha2
# Outline: as §1
# MOK(h) = target: T5, MOK(h) (Homo sapiens, UniProt Q9UQ07)
# T5 sequence (Q9UQ07 1-419): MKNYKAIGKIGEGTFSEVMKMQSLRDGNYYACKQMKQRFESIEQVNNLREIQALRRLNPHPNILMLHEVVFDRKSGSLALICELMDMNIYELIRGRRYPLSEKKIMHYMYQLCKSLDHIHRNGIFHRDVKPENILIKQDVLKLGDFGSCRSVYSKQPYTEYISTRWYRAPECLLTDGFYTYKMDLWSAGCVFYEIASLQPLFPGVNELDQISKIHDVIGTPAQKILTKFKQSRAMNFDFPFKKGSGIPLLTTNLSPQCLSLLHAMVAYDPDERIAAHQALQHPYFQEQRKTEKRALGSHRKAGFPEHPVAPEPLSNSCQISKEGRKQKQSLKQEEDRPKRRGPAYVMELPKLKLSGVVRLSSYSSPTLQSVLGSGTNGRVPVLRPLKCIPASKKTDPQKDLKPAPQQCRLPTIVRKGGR
# Outline: as §1
# CDKL1(h) = CDKL1(h) (Homo sapiens, UniProt Q00532)
# Outline: as §1
# PKCβII(h) = target: T6, PKCβII(h) (Homo sapiens, UniProt P05771)
# T6 construct: gene PRKCB; isoform beta II
# Outline: as §1
# NLK(h) = target: T7, NLK(h) (Homo sapiens, UniProt Q9UBE8)
# T7 sequence (Q9UBE8 1-527): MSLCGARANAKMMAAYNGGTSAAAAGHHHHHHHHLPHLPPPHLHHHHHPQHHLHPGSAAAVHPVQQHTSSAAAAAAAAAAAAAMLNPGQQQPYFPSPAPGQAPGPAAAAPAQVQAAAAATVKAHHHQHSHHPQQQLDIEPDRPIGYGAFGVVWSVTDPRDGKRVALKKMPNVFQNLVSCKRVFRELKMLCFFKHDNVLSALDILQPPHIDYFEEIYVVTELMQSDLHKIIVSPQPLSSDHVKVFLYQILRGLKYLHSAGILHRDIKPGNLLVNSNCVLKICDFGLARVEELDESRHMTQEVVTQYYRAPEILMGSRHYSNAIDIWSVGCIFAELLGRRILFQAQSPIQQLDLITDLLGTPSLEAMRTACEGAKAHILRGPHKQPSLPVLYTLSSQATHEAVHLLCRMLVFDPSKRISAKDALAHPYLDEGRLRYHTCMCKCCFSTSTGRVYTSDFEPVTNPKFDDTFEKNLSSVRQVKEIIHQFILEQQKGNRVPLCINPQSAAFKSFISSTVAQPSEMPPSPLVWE
# Outline: as §1
# PKCβI(h) = target: T8, PKCβI(h) (Homo sapiens, UniProt P05771)
# T8 construct: gene PRKCB; isoform beta I
# Outline: as §1
# PDHK4(h) = target: T9, PDHK4(h) (Homo sapiens, UniProt Q16654)
# T9 construct: gene PDK4
# Outline: as §1
# CK2α1(h) = target: T10, CK2α1(h) (Homo sapiens, UniProt P68400)
# T10 construct: gene CSNK2A1
# Outline: as §1
# [2] = read-out: Residual activity (%) 5ay
# [3] = read-out: Residual activity (%) Spautin-1 5aa
# [4] = read-out: Residual activity (%) 5at
# [5] = read-out: Residual activity (%) 5as
# T10 sequence (P68400 whole entry): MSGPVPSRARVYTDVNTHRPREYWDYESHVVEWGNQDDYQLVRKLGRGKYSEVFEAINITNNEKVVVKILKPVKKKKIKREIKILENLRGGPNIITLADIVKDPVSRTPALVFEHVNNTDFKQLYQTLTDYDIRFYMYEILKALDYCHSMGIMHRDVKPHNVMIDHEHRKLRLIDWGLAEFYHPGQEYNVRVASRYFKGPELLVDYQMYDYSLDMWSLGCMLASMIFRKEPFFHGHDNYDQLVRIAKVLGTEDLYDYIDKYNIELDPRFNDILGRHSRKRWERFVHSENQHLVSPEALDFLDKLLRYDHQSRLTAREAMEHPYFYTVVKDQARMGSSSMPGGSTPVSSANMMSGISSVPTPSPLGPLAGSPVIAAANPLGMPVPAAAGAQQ
# T4 sequence (P45984 whole entry, canonical isoform): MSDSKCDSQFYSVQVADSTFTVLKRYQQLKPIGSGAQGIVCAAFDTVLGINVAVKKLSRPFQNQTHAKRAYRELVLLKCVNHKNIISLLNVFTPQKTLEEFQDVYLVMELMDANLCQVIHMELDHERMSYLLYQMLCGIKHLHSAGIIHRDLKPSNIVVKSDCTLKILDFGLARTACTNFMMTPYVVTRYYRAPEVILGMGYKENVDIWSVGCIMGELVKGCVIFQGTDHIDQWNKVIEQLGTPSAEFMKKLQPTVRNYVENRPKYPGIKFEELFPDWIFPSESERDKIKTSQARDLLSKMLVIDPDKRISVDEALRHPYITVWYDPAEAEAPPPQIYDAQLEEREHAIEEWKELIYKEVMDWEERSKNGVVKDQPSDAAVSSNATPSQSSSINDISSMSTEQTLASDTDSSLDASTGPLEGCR
# T3 sequence (O60331 whole entry): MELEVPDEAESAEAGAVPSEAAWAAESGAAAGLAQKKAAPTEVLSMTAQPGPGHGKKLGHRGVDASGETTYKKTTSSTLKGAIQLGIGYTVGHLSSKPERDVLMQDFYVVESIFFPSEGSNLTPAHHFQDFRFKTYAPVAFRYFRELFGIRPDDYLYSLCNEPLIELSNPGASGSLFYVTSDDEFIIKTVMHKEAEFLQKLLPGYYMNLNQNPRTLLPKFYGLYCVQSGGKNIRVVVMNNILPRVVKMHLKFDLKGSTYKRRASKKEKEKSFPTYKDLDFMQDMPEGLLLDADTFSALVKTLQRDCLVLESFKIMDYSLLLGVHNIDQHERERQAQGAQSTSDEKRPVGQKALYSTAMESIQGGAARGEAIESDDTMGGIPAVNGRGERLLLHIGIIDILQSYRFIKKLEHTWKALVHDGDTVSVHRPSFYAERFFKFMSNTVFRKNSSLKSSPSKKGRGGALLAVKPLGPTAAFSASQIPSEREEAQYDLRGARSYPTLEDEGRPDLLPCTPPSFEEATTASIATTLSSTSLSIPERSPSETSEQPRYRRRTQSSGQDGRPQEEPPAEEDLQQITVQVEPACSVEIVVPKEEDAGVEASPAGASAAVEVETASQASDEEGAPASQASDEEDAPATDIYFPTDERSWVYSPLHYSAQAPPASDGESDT
# DYRK1B(h), sequence (Q9Y463 whole entry): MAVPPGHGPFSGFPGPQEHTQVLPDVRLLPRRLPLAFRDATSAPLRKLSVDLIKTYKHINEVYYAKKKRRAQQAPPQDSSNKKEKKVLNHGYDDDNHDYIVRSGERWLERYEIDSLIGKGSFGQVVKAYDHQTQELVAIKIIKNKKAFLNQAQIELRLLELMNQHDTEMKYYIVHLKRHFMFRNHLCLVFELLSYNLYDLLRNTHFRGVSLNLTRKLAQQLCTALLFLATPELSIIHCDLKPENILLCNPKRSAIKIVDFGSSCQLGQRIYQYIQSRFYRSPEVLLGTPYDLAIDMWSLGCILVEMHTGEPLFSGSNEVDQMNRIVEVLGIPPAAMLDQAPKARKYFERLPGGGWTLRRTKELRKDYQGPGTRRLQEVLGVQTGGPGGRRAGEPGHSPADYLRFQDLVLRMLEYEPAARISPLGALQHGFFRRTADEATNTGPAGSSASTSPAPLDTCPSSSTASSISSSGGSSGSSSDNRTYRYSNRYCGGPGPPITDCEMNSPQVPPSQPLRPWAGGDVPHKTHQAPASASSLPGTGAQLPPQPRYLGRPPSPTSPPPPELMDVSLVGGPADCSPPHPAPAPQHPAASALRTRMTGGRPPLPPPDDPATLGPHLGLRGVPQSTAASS
# T2 sequence (P42336 whole entry E542K): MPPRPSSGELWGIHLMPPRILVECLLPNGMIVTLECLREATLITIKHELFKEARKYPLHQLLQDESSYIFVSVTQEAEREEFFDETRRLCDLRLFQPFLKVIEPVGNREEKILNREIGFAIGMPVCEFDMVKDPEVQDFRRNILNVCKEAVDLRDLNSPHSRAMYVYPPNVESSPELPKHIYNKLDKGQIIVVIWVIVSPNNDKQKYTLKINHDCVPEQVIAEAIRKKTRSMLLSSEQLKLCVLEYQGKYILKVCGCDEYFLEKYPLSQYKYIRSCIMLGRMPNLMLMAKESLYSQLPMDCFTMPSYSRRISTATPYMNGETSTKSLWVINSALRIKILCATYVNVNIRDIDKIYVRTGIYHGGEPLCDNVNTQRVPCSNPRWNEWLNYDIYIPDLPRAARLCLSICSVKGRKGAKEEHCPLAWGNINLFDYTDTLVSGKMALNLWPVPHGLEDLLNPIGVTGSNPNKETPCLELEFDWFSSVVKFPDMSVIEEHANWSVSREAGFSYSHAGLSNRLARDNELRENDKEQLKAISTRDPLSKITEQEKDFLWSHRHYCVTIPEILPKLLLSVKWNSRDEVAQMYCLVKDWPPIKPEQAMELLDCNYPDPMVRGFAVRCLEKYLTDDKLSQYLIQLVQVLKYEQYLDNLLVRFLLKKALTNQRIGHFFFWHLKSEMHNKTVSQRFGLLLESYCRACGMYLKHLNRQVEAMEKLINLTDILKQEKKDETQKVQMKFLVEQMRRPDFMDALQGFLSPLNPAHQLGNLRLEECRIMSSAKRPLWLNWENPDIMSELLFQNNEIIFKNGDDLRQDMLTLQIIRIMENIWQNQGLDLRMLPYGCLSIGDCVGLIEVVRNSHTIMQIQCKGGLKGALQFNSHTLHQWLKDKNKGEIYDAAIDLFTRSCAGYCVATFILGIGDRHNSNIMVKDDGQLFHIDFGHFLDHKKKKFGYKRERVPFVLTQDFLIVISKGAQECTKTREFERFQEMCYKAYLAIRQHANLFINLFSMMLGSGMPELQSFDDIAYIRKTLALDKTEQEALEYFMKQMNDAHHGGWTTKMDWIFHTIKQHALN
# T2 sequence (P27986 whole entry partner): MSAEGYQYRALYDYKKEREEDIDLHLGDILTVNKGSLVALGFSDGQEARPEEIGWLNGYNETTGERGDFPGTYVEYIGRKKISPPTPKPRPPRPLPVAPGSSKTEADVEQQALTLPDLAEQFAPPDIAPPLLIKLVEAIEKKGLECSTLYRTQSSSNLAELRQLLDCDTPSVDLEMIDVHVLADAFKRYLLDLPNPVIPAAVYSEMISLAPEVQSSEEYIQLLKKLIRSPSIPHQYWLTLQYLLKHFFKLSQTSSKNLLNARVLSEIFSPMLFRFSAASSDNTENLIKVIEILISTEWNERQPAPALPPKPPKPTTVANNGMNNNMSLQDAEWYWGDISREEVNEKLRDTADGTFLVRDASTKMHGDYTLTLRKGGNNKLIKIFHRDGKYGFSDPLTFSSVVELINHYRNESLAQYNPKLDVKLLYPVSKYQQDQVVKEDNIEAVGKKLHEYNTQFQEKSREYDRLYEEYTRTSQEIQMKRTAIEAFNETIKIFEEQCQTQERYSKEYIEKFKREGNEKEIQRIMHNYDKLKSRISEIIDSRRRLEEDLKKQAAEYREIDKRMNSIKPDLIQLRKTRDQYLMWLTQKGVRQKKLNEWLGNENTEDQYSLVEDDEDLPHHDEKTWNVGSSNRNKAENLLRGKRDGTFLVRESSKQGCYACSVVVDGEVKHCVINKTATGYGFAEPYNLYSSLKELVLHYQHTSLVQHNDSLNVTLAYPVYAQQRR
# CDKL1(h), sequence (Q00532 whole entry): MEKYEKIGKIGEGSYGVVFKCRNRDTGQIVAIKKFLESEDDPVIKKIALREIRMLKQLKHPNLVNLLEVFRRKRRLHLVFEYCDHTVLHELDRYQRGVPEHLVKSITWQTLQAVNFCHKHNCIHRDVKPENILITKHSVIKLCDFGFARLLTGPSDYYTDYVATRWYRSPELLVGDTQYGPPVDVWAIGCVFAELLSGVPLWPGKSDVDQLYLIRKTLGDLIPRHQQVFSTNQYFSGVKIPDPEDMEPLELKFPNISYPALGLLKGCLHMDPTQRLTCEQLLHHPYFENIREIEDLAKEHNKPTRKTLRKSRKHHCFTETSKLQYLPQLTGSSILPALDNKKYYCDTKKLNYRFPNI
# T8 sequence (P05771 whole entry, canonical isoform): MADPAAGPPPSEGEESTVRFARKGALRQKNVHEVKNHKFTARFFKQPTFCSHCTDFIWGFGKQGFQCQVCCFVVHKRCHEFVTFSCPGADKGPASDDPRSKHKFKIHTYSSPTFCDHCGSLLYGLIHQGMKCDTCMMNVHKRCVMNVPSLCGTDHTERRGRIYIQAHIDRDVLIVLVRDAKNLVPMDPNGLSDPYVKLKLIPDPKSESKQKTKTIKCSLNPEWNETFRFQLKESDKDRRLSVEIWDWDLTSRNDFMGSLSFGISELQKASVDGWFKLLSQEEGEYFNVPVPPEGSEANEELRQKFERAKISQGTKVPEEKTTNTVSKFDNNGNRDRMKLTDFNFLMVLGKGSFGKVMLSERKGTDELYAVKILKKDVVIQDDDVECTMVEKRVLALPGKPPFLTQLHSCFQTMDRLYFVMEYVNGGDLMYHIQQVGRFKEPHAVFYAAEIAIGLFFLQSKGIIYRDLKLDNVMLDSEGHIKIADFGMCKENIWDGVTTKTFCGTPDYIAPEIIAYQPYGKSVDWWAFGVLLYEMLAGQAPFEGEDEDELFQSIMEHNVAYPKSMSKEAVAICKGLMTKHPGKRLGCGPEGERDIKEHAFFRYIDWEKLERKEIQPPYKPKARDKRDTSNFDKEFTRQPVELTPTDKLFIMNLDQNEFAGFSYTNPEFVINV
structure (smiles),measurement,setting,value
"COc1ccc2ncnc(Nc3cccc(F)c3)c2c1 [5ay, N-(3-Fluorophenyl)-6-Methoxy-4-Quinazolinamine]",remaining activity at 10 µM,DYRK1B(h); [2],53%
same,remaining activity at 10 µM,PKA(h); [2],97%
same,remaining activity at 10 µM,SLK(h); [2],70%
same,remaining activity at 10 µM,[1]; [2],88%
same,remaining activity at 10 µM,PIP5K1g(h); [2],107%
same,remaining activity at 10 µM,JNK2α2(h); [2],82%
same,remaining activity at 10 µM,MOK(h); [2],65%
same,remaining activity at 10 µM,CDKL1(h); [2],119%
same,remaining activity at 10 µM,PKCβII(h); [2],110%
same,remaining activity at 10 µM,NLK(h); [2],80%
same,remaining activity at 10 µM,PKCβI(h); [2],86%
same,remaining activity at 10 µM,PDHK4(h); [2],104%
"Fc1ccc(CNc2ncnc3ccc(F)cc23)cc1 [5aa, 6-Fluoro-N-(4-fluorobenzyl)-4-Quinazolinamine]",remaining activity at 10 µM,DYRK1B(h); [3],88%
same,remaining activity at 10 µM,PKA(h); [3],103%
same,remaining activity at 10 µM,SLK(h); [3],98%
same,remaining activity at 10 µM,[1]; [3],94%
same,remaining activity at 10 µM,PIP5K1g(h); [3],100%
same,remaining activity at 10 µM,JNK2α2(h); [3],89%
same,remaining activity at 10 µM,CK2α1(h); [3],105%
same,remaining activity at 10 µM,MOK(h); [3],89%
same,remaining activity at 10 µM,CDKL1(h); [3],94%
same,remaining activity at 10 µM,PKCβII(h); [3],107%
same,remaining activity at 10 µM,NLK(h); [3],85%
same,remaining activity at 10 µM,PKCβI(h); [3],95%
same,remaining activity at 10 µM,PDHK4(h); [3],106%
"Fc1ccc2ncnc(NCCc3ccc(Cl)cc3)c2c1 [5at, N-[2-(4-Chlorophenyl)Ethyl]-6-Fluoro-4-Quinazolinamine]",remaining activity at 10 µM,DYRK1B(h); [4],92%
same,remaining activity at 10 µM,PKA(h); [4],106%
same,remaining activity at 10 µM,SLK(h); [4],78%
same,remaining activity at 10 µM,[1]; [4],93%
same,remaining activity at 10 µM,PIP5K1g(h); [4],101%
same,remaining activity at 10 µM,JNK2α2(h); [4],88%
same,remaining activity at 10 µM,CK2α1(h); [4],78%
same,remaining activity at 10 µM,MOK(h); [4],100%
same,remaining activity at 10 µM,CDKL1(h); [4],111%
same,remaining activity at 10 µM,PKCβII(h); [4],104%
same,remaining activity at 10 µM,NLK(h); [4],82%
same,remaining activity at 10 µM,PKCβI(h); [4],93%
same,remaining activity at 10 µM,PDHK4(h); [4],101%
"Fc1ccc(CCNc2ncnc3ccc(F)cc23)cc1 [5as, 6-Fluoro-N-[2-(4-Fluorophenyl)Ethyl]-4-Quinazolinamine]",remaining activity at 10 µM,DYRK1B(h); [5],82%
same,remaining activity at 10 µM,PKA(h); [5],101%
same,remaining activity at 10 µM,SLK(h); [5],77%
same,remaining activity at 10 µM,[1]; [5],91%
same,remaining activity at 10 µM,PIP5K1g(h); [5],104%
same,remaining activity at 10 µM,JNK2α2(h); [5],78%
same,remaining activity at 10 µM,CK2α1(h); [5],84%
same,remaining activity at 10 µM,MOK(h); [5],86%
same,remaining activity at 10 µM,CDKL1(h); [5],111%
same,remaining activity at 10 µM,PKCβII(h); [5],100%
same,remaining activity at 10 µM,NLK(h); [5],93%
same,remaining activity at 10 µM,PKCβI(h); [5],100%
same,remaining activity at 10 µM,PDHK4(h); [5],102%
